Data on two compounds can be found in patent US9018173B2, “Materials and methods for suppressing inflammatory and neuropathic pain” (Indiana University Research and Technology Corp., priority 2010, dated 2015).

Residues, ends and D or L forms follow the SMILES beside them.

Data set [1] has as its system anxiety-associated behavior. Kind of data set: Elevated plus maze (EPM). It counts as in vivo, C57BL6 mice. Conditions: for Elevated Plus Maze: Closed arm entries / Elevated Plus Maze: Closed arm latency to enter / Elevated Plus Maze: Closed arm latency to exit / Elevated Plus Maze: Open arm entries / Elevated Plus Maze: Open arm latency to enter / Elevated Plus Maze: Open arm latency to exit: C57BL6 mice, 1 h after injection, 5 min test.

The nature of data set [2]: Biodistribution after i.p. injection (dot blot, FITC fluorescence). Conditions: 25 mg/kg i.p.
The test system of data set [3] is CaV2.2 cytosolic loop 1 (L1) and distal C-terminus (Ct-dis). Put plainly: Surface plasmon resonance binding to CaV2.2 L1- and Ct-dis-GST fusion proteins. Set-up: species or system rat. Conditions: peptide 1/3/5 μM. An excerpt:
In Vitro Protein Binding Assays. Using Vector NTI (v. 11; Invitrogen) software, primers were designed to amplify regions corresponding to the first cytoslic loop (L1; amino acids 356 to 483) and the distal end of the C-terminus (Ct-dis; amino acids 2133 to 2348) of rat CaV2.2 cDNA from P3 rat brain cDNA. The primers harbored restriction sites (Bam HI or Bgl II (5′) and Eco RI or Mfe I (3′)) to facilitate cloning into […]. In addition to the GST-tag, this vector contains the Glu tag, a sequence of six amino acids (EYMPME). Correctly-amplified PCR products and parent pGex-3x-Glu vector were digested with the indicated restriction enzymes, and then extracted following electrophoresis on an agarose gel. The extracted DNAs were quantified (Nanodrop 1000, Thermo Scientific), and ligations were performed using 6:1 and 3:1 insert to vector molar ratios. […]
Surface Plasmon resonance (SPR). Binding analyses between TAT CBD3 or TAT control peptides and CaV2.2 L1- or Ct-dis-GST fusion proteins was determined by surface plasmon resonance using a BIAcore3000 instrument (Biacore AB, Uppsala, Sweden). […]
Biochemistry and immunocytochemistry experiments. […] The binding between TAT CBD3 or TAT control peptides and CaV2.2 L1- or Ct-dis-GST fusion proteins was determined by surface plasmon resonance using a BIAcore3000 instrument (Biacore AB, Uppsala, Sweden).

The target of data set [4] is T1, interaction between tubulin and CRMP-2 (Rattus norvegicus, UniProt P47942).
T1 construct: from tissue; host or cells: rat brain / spinal cord lysates (tubulin)
Kind of data set: Immunoprecipitation of CRMP-2/tubulin in the presence of peptides. It counts as binding. As to conditions: spinal cord lysates.

As for `CC(C)C[C@H](NC(=O)CNC(=O)[C@H](CCCNC(=N)N)NC(=O)[C@@H]1CCCN1C(=O)[C@@H](NC(=O)CNC(=O)[C@H](CCCNC(=N)N)NC(=O)[C@H](CC(C)C)NC(=O)[C@H](CCC(=O)O)NC(=O)[C@H](C)NC(=O)[C@H](CC(C)C)NC(=O)[C@H](CCCNC(=N)N)NC(=O)[C@H](CO)NC(=O)[C@H](CCCNC(=N)N)NC(=O)[C@H](C)NC(=O)[C@H](CCCNC(=N)N)NC(=O)[C@H](CCCNC(=N)N)NC(=O)[C@H](CCCNC(=N)N)NC(=O)[C@H](CCC(N)=O)NC(=O)[C@H](CCCNC(=N)N)NC(=O)[C@H](CCCNC(=N)N)NC(=O)[C@H](CCCCN)NC(=O)[C@H](CCCCN)NC(=O)[C@H](CCCNC(=N)N)NC(=O)CNC(=O)[C@@H](N)Cc1ccc(O)cc1)C(C)C)C(=O)O` [TAT-CBD3] (H-YGRKKRRQRRRARSRLAELRGVPRGL-OH; N-terminus and C-terminus assumed), in data set [1] (0.1 mg/kg i.p.), the “Elevated Plus Maze: Closed arm entries” value was 19.1 ± 1.4, the “Elevated Plus Maze: Closed arm latency to enter” value is 4.5 ± 2.2 s, the “Elevated Plus Maze: Closed arm latency to exit” value is listed as 14.9 ± 2.9 s and the “Elevated Plus Maze: Open arm entries” value is on record as 13.6 ± 1.6. In data set [1] (0.1 mg/kg i.p.), the “Elevated Plus Maze: Open arm latency to enter” value was found to be 10.3 ± 2.7 s and the “Elevated Plus Maze: Open arm latency to exit” value is given as 17.7 ± 2.5 s. In data set [1] (1 mg/kg i.p.), the “Elevated Plus Maze: Closed arm entries” value was found to be 26.4 ± 4.2, the “Elevated Plus Maze: Closed arm latency to enter” value is reported as 2.4 ± 2.1 s, the “Elevated Plus Maze: Closed arm latency to exit” value is 11.1 ± 2.6 s and the “Elevated Plus Maze: Open arm entries” value is reported as 19.7 ± 3.1. In data set [1] (1 mg/kg i.p.), the “Elevated Plus Maze: Open arm latency to enter” value is reported as 10.1 ± 2.9 s and the “Elevated Plus Maze: Open arm latency to exit” value was 16.4 ± 3.1 s. For the same compound, in data set [1] (10 mg/kg i.p.), the “Elevated Plus Maze: Closed arm entries” value turned out to be 27.4 ± 7.0, the “Elevated Plus Maze: Closed arm latency to enter” value is 5.3 ± 2.2 s, the “Elevated Plus Maze: Closed arm latency to exit” value stood at 10.6 ± 3.5 s and the “Elevated Plus Maze: Open arm entries” value was determined as 20.0 ± 6.1. Besides, in data set [1] (10 mg/kg i.p.), the “Elevated Plus Maze: Open arm latency to enter” value amounted to 4.6 ± 1.9 s and the “Elevated Plus Maze: Open arm latency to exit” value is given as 11.1 ± 2.1 s. Further, in data set [1] (any dose, compared to TAT-Scramble), the “EPM time in and entries into open/closed arms” value is “neither time spent in the open or closed arms, nor frequency of entries into the open nor closed arms were altered”. Further, the “tissue distribution (dot blot, anti-TAT antibody)” value in data set [2] (15 min post-injection) is “detected in spleen and largely concentrated in lumbar dorsal root ganglion (DRG) and lumbar section of the spinal cord”. In addition, the “tissue distribution (dot blot, anti-TAT antibody)” value in data set [2] (1 h post-injection) is “also detected in kidney, brain, spinal cord and was abundant in the DRG”.
On to ARSRLAELRGVPRGL (CBD3), for which the “binding to immobilized L1 and Ct-dis proteins (surface plasmon resonance)” value in data set [3] is “bound to immobilized L1 and Ct-dis proteins”. Besides, the “interaction between tubulin and CRMP-2 (immunoprecipitation)” value in data set [4] is listed as “did not affect”.
